# Results as given in patent publication US20070293518A1, “PROLONGED IMPROVEMENT OF RENAL FUNCTION COMPRISING INFREQUENT ADMINISTRATION OF AN AA1RA” (priority 2006, published 2007).
# Where “and” joins values, the source holds several entries; their conditions need not be identical. Identical values can stand only once. Like-named read-outs stand apart in the source and are kept apart here. Marks after values point to notes of the source that are not given here.
# Assays:
# [1] = test system: patients with CHF and renal impairment; assay: Double-blind placebo-controlled study in CHF patients with acute fluid overload and renal impairment: sustained worsening renal function; format: in vivo, human; conditions: 2.5, 15, 30 or 60 mg IV days 1 through 3; FIG. 6
# Protocol: Worsening renal function was defined as a ≧0.3 mg/dL increase in serum creatinine.
# [2] = test system: subjects with congestive heart failure refractory to standard diuretic therapy; assay: Double-blind placebo-controlled study in CHF patients refractory to standard diuretic therapy: creatinine clearance; format: in vivo, human; conditions: 30 mg intravenous infusion with current diuretic therapy; 0-24 hours; FIG. 4
# Protocol: A double-blind placebo-controlled study was conducted as follows: 35 subjects with congestive heart failure that were refractory to standard diuretic therapy were identified. […] The patients' diuretic therapy was stopped at least 5 hours before prior to the treatment. Staring at −3 hours, urine was collected for volume and creatinine clearance measurements. […] Blood and urine samples were colleted at 0, 3, 6, 9, 12 and 24 hours following study drug administration.
# [3] = Pharmacokinetic study of KW-3902, single intravenous dose, serum concentrations; format: in vivo; conditions: human; for clearance: read-out: CL∞ Mean (converted); for half-life: read-out: T1/2 Mean (converted); for Tmax: read-out: Tmax Median; for Vd: read-out: Vss∞ Mean
# Protocol: Individuals received a single intravenous dose of 1 mg, 2.5 mg. 5 mg, 10 mg, 20 mg, 30 mg 40 mg, 50 mg or 60 mg KW-3902 as indicated. The serum concentrations of KW-3902 and its M1-trans metabolite were measured using routine analytical methods. Routine mathematical formulae were used to determine pharmacokinetic values.
# [4] = test system: heart failure patients with renal impairment who are treated with diuretics; assay: Double-blind cross-over study in stable CHF: GFR, RPF, urine volume; format: in vivo, human; conditions: for GFR % Difference Between KW-3902 and Placebo / GFR Percent Change from Baseline / RPF % Difference Between KW-3902 and Placebo / RPF Percent Change from Baseline: 30 mg KW-3902 IV plus 80 mg IV furosemide
# Protocol: A double-blind, multi-center, cross-over designed, controlled study was conducted as follows: Approximately 23 outpatient subjects were randomized. […] Subjects received at least two treatments that were at least three days apart, with a median interval between treatments of 6 days. […] Patients that received KW-3902 on the first visit received placebo on the second visit, and vice versa. Infusions of lothalamate ([…]) and para-aminohippurate were administered according to standard protocols to assess glomerular filtration rate (GFR) and renal plasma flow (RPF), respectively. Iothalamate and para-aminohippurate were administered over 180 minutes before treatment with KW-3902/placebo and 8 hours after treatment with KW-3902/placebo. Urine and plasma were collected for GFR and RPF at baseline and 2, 4, and 8 hours. The mean GFR at baseline was 61 mL/min.
# [5] = test system: subjects hospitalized due to acute CHF requiring intravenous diuretic therapy; assay: Study in subjects hospitalized due to acute CHF requiring intravenous diuretic therapy: serum creatinine, worsening renal function; format: in vivo, human
# Protocol: More than 300 subjects hospitalized due to acute CHF requiring intravenous diuretic therapy to treat fluid overload, and presenting with creatinine clearance values between 20 to 80 mL/min were identified. The subjects were randomized to receive either placebo, or 10 mg, 20 mg or 30 mg intravenous KW-3902 per day. The subjects' BNP levels, NT-Pro-BNP, serum creatinine, weight, and NYHA Class were measured.
# On day 1, KW-3902 (or placebo) was co-administered with intravenous furosemide (LASIX™). The specified dose of KW-3902 (or placebo) was infused over a four hour time period. Subjects received therapy for up to three days, as required. Serum creatinine, weight, dyspnea, and worsening heart failure were assessed daily by the investigator on days 1 through 14. Worsening renal function was defined as a ≧0.3 mg/dL increase in serum creatinine.
# A subgroup of subjects received a single dose of KW-3902 and LASIX or a single dose of placebo and LASIX.
# [6] = 1 mg, single intravenous dose 1 mg, Group 1, serum
# [7] = 2.5 mg, single intravenous dose 2.5 mg, Group 1 (n = 4)
# [8] = 2.5 mg, single intravenous dose 2.5 mg, Group 2 (n = 8)
# [9] = 5 mg, single intravenous dose 5 mg, Group 2, serum
# [10] = 10 mg, single intravenous dose 10 mg, Group 2, serum
# [11] = 20 mg, single intravenous dose 20 mg, Group 3, serum
# [12] = 30 mg, single intravenous dose 30 mg, Group 3, serum
# [13] = 40 mg, single intravenous dose 40 mg, Group 4, serum
# [14] = 50 mg, single intravenous dose 50 mg, Group 4, serum
# [15] = 60 mg, single intravenous dose 60 mg, Group 4, serum
# [16] = serum, individual subjects of subgroup, single dose of KW-3902 and LASIX
smiles,measurement,setting,value
"CCCn1c(=O)c2[nH]c(C34CC5CC(CC3C5)C4)nc2n(CCC)c1=O [KW-3902, 8-(3-noradamantyl)-1,3-dipropylxanthine]","Sustained worsening renal function (≧0.3 mg/dL increase in serum creatinine), in words",[1],improves renal function
same,Change in creatinine clearance from baseline (in words),[2],improvement in renal function over time
same,AUC(0-inf),[3]; [6],31.5 ng·h/mL
same,Cmax,[3]; [6],12.9 ng/mL
same,MRT inf,[3]; [6],2.6 h
same,clearance,[3]; [6],610 mL/min
same,half-life,[3]; [6],2.8 h
same,Tmax,[3]; [6],0.5 h
same,Vd,[3]; [6],58.9 L
same,AUC(0-inf),[3]; [7],97.6 ng·h/mL
same,Cmax,[3]; [7],35.6 ng/mL
same,MRT inf,[3]; [7],8.1 h
same,clearance,[3]; [7],443 mL/min
same,half-life,[3]; [7],11.4 h
same,Tmax,[3]; [7],1.2 h
same,Vd,[3]; [7],185 L
same,AUC(0-inf),[3]; [8],84 ng·h/mL
same,Cmax,[3]; [8],35.9 ng/mL
same,MRT inf,[3]; [8],4.7 h
same,clearance,[3]; [8],518 mL/min
same,half-life,[3]; [8],7.3 h
same,Tmax,[3]; [8],0.5 h
same,Vd,[3]; [8],117 L
same,AUC(0-inf),[3]; [9],221 ng·h/mL
same,Cmax,[3]; [9],90.9 ng/mL
same,MRT inf,[3]; [9],5.8 h
same,clearance,[3]; [9],435 mL/min
same,half-life,[3]; [9],9.6 h
same,Tmax,[3]; [9],0.5 h
same,Vd,[3]; [9],106 L
same,AUC(0-inf),[3]; [10],496 ng·h/mL
same,Cmax,[3]; [10],186 ng/mL
same,MRT inf,[3]; [10],8.7 h
same,clearance,[3]; [10],350 mL/min
same,half-life,[3]; [10],14.4 h
same,Tmax,[3]; [10],0.5 h
same,Vd,[3]; [10],161 L
same,AUC(0-inf),[3]; [11],898 ng·h/mL
same,Cmax,[3]; [11],294 ng/mL
same,MRT inf,[3]; [11],11.5 h
same,clearance,[3]; [11],390 mL/min
same,half-life,[3]; [11],18 h
same,Tmax,[3]; [11],1.2 h
same,Vd,[3]; [11],244 L
same,AUC(0-inf),[3]; [12],1190 ng·h/mL
same,Cmax,[3]; [12],457 ng/mL
same,MRT inf,[3]; [12],7.7 h
same,clearance,[3]; [12],455 mL/min
same,half-life,[3]; [12],14.7 h
same,Tmax,[3]; [12],0.6 h
same,Vd,[3]; [12],189 L
same,AUC(0-inf),[3]; [13],1870 ng·h/mL
same,Cmax,[3]; [13],452 ng/mL
same,MRT inf,[3]; [13],9.4 h
same,clearance,[3]; [13],372 mL/min
same,half-life,[3]; [13],16.1 h
same,Tmax,[3]; [13],2.2 h
same,Vd,[3]; [13],178 L
same,AUC(0-inf),[3]; [14],2120 ng·h/mL
same,Cmax,[3]; [14],579 ng/mL
same,MRT inf,[3]; [14],7.9 h
same,clearance,[3]; [14],427 mL/min
same,half-life,[3]; [14],15.5 h
same,Tmax,[3]; [14],1.6 h
same,Vd,[3]; [14],166 L
same,AUC(0-inf),[3]; [15],2720 ng·h/mL
same,Cmax,[3]; [15],682 ng/mL
same,MRT inf,[3]; [15],9.2 h
same,clearance,[3]; [15],378 mL/min
same,half-life,[3]; [15],16.4 h
same,Tmax,[3]; [15],2.2 h
same,Vd,[3]; [15],176 L
same,GFR % Difference Between KW-3902 and Placebo,[4]; 0-2 hours,27.3* %
same,GFR Percent Change from Baseline,[4]; 0-2 hours,22.1* Percent
same,RPF % Difference Between KW-3902 and Placebo,[4]; 0-2 hours,27.7* %
same,RPF Percent Change from Baseline,[4]; 0-2 hours,33.3* Percent
same,GFR % Difference Between KW-3902 and Placebo,[4]; 0-8 hours,23.4* %
same,GFR Percent Change from Baseline,[4]; 0-8 hours,32.1* Percent
same,RPF % Difference Between KW-3902 and Placebo,[4]; 0-8 hours,24.9* %
same,RPF Percent Change from Baseline,[4]; 0-8 hours,47.7** Percent
same,GFR % Difference Between KW-3902 and Placebo,[4]; 2-4 hours,7.6%
same,GFR Percent Change from Baseline,[4]; 2-4 hours,8.5%
same,RPF % Difference Between KW-3902 and Placebo,[4]; 2-4 hours,12.7%
same,RPF Percent Change from Baseline,[4]; 2-4 hours,41.7%
same,GFR % Difference Between KW-3902 and Placebo,[4]; 4-8 hours,30.1* %
same,GFR Percent Change from Baseline,[4]; 4-8 hours,41.3* Percent
same,RPF % Difference Between KW-3902 and Placebo,[4]; 4-8 hours,30.0* %
same,RPF Percent Change from Baseline,[4]; 4-8 hours,55.8* Percent
same,Effect on GFR (in words),[4]; FIG. 2,statistically significant increase
same,Effect on renal plasma flow (in words),[4]; FIG. 3,statistically significant increase
same,Urine volume over 8 hours,[4]; KW-3902 plus furosemide,2995.1 ± 1138.17 mL
same,Persistence of the increase in GFR noted at 8 hours,"[4]; subgroup that received KW-3902 on the first visit, follow-up baseline (median 6 days), FIG. 5",persisted at the time of follow-up baseline
same,Change in mean serum creatinine levels (in words),"[5]; 30 mg per day IV up to three days, Day 14, FIG. 8",overall decrease in serum creatinine levels
same,"Increase in the percentage of individuals with worsening renal failure, compared to placebo","[5]; days 2, 3, 4, 5, 6, and 7, FIG. 7",lower
same,Δ Creatinine,"[5]; serum, Day 14 vs Day 1, individual subjects of subgroup, single dose of KW-3902 and LASIX",−0.5 mg/dL and 0 mg/dL (2×) and 0.2 mg/dL and −0.2 mg/dL and −0.1 mg/dL
same,Day 1 Creatinine,[5]; [16],1.7 mg/dL and 1.4 mg/dL and 1.15 mg/dL and 2.9 mg/dL and 1.6 mg/dL and 3.2 mg/dL and 1.0 mg/dL
same,Day 14 Creatinine,[5]; [16],1.2 mg/dL and 1.4 mg/dL and 1.3 mg/dL and 2.7 mg/dL (2×) and 1.0 mg/dL
same,Mean change in serum creatinine levels (in words),"[5]; single dose subgroup (30 mg KW-3902), Day 14",mean decrease in serum creatinine levels
